Consider two molecules from article PMC12621175, “Scaffold Fusion and SAR Transfer with a Chemical Language Model Generates Novel Liver X Receptor Modulators” (Journal of Medicinal Chemistry, 2025).

One test deals with T1, RORα (NR1F1) (Homo sapiens, UniProt P35398).
T1 construct: coding for the hinge region, and LBD of the canonical isoform of the respective nuclear receptor; expressed in transfected cells; host or cells: HEK293T
T1 sequence (P35398 272-510 limits assumed): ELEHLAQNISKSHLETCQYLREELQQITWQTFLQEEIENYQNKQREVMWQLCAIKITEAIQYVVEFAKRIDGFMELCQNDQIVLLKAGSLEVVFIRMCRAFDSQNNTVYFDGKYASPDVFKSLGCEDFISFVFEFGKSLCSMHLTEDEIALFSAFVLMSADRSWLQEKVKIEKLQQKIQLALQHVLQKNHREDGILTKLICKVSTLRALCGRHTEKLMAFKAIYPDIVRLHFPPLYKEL
Nature of the test: Gal4-RORα hybrid reporter gene assay (off-target profiling). In kind it is cell-based. From the text: (§1) For the hybrid reporter gene assays, the previously reported Gal4-fusion receptor plasmids pFA-CMV-hRORα-LBD, pFA-CMV-hRORβ-LBD, pFA-CMV-hRORγ-LBD, pFA-CMV-hLXRα-LBD, pFA-CMV-hLXRβ-LBD, pFA-CMV-hFXR-LBD, pFA-CMV-hPXR-LBD, and pFA-CMV-hRXRα-LBD, coding for the hinge region, and LBD of the canonical isoform of the respective nuclear receptor were used. pFR-Luc (Stratagene) was used as the reporter plasmid, and pRL-SV40 (Promega) was used in all assays for the normalization of transfection efficiency and cell growth. pECE-SV40-Gal4-VP16 was a gift from Lea Sistonen (Addgene plasmid #71728). The LXR-responsive reporter ABCA1-pGL3 was used for the full-length reporter gene assay.
(§2) The day before transfection, HEK293T cells were seeded in 96-well plates (4 × 10^4 cells/well). Before transfection, the medium was changed to Opti-MEM without any supplements. […] Luminescence was measured with a Spark 10 M luminometer (Tecan Deutschland GmbH). […] EC50/IC50 values and the standard errors thereof were calculated with the mean fold activation values by OriginPro, Version 2025 (OriginLab Corporation, Northampton, MA, USA), fitting a dose–response curve with a variable Hill slope (Levenberg–Marquardt algorithm). […]
A general note: A reporter such as luciferase makes a cellular process visible.

In a further test the target is T2, RORγ (NR1F3) (Homo sapiens, UniProt P51449).
T2 construct: coding for the hinge region, and LBD of the canonical isoform of the respective nuclear receptor; expressed in transfected cells; host or cells: HEK293T
T2 sequence (P51449 269-508 limits assumed): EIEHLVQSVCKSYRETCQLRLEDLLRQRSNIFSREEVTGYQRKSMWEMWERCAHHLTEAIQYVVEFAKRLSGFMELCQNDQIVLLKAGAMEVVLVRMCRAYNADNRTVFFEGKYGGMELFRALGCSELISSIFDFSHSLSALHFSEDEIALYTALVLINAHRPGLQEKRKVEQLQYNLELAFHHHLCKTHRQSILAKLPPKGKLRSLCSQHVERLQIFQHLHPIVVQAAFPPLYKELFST
Nature of the test: Gal4-RORγ hybrid reporter gene assay (off-target profiling). To be noted: compared with T0901317. Format: cell-based.
Text: as §1, §2

The target in the next test is T3, FXR (NR1H4) (Homo sapiens, UniProt Q96RI1).
T3 construct: coding for the hinge region, and LBD of the canonical isoform of the respective nuclear receptor; expressed in transfected cells; host or cells: HEK293T
T3 sequence (Q96RI1 262-486 limits assumed): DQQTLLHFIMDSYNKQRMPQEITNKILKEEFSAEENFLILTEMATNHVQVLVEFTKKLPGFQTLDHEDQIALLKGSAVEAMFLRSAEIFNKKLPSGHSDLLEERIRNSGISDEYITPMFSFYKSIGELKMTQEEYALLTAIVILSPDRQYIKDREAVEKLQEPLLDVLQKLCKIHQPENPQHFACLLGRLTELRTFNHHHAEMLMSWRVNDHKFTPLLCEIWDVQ
Briefly: Gal4-FXR hybrid reporter gene assay (off-target profiling). To be noted: compared with T0901317. Format: cell-based.
Text: as §1, §2

The test system of a further test is ABCA1. Briefly: qPCR of LXR-regulated mRNA expression in HepG2: ABCA1. Format: cell-based, human. To be noted: HepG2, 24 h. (Quantitative PCR measures a nucleic acid by following its amplification.)
In the next test the test system is SREBP1c. Nature of the test: qPCR of LXR-regulated mRNA expression in HepG2: SREBP1c. The note with it: HepG2, 24 h. In kind it is cell-based, human.
The test system of a further test is HepG2 cells. Briefly: lipolysis assay after steatosis induction with oleic and palmitic acid (Oil Red O). The note with it: 30 μM, 72 h; HepG2 pretreated 24 h with oleic acid (66.7 μM) and palmitic acid (33.3 μM). Format: cell-based. Here is the method:
HepG2 cells were seeded in collagen-coated 96-well plates at a density of 10^4 cells per well and incubated for 24 h. For the lipolytic mode, the cells were pretreated for additional 24 h with 66.7 μM oleic acid and 33.3 μM palmitic acid in culture medium with 1% bovine serum albumin (BSA). The cells were then treated with DMSO (0.1%) alone or in combination with test compounds in the culture medium. After 72 h, the cells were washed with PBS (2 × 50 μL) and fixed with 10% formalin solution (50 μL) for 15 min. After removal of the fixative, the cells were washed with H2O (2 × 50 μL), followed by 50 μL of 60% iPrOH and incubated with 50 μL Oil Red O solution (0.3% in 60% iPrOH) for 10 min to stain neutral lipids. The cells were washed quickly with 50 μL of 60% iPrOH and 2 × 50 μL of PBS. Microscopic images were taken using a 40x objective on a BZ-X810 microscope (KEYENCE, Frankfurt, Germany). Images were analyzed using ImageJ software (v1.54) according to a literature method.

“Also recorded” adds a separate entry of the source.

`CCN(C(=O)c1ccccc1)c1ccc(C(O)(C(F)(F)F)C(F)(F)F)cc1` [Compound 1, N-Ethyl-N-(4-[1,1,1,3,3,3-hexafluoro-2-hydroxypropan-2-yl]phenyl)benzamide]: on RORα (NR1F1) (off-target profiling, compared with T0901317), the RORα activity result is recorded as “no activity; also recorded: did not affect”. Besides, on RORγ (NR1F3), the RORγ activity entry was “reduced activity; also recorded: weaker inverse RORγ agonist”. The FXR activity entry on FXR (NR1H4) was “no activity; also recorded: did not affect”. For the same molecule, the “ABCA1 mRNA expression” value in the test on ABCA1 (3 μM) is “induced”. Moreover, the “SREBP1c mRNA expression” value in the test with SREBP1c (3 μM) is listed as “induced”.

Turning to `CS(=O)(=O)c1cccc(-c2ccc(CN(Cc3cccc(C(F)(F)F)c3Cl)CC(c3ccccc3)c3ccccc3)cc2)c1` [Compound 3, N-(2-Chloro-3-[trifluoromethyl]benzyl)-N-([3′-{methylsulfonyl}-{1,1′-biphenyl}-4-yl]methyl)-2,2-diphenylethan-1-amine], the RORα activity result at RORα (NR1F1) (30 μM) was “only activated RORα with low efficacy; also recorded: weak RORα activation”. Further, the “ABCA1 mRNA expression” value in the test on ABCA1 (30 μM) is “did not significantly alter the expression; also recorded: only a weak impact”. In addition, in the test on SREBP1c (30 μM), the “SREBP1c mRNA expression” value is listed as “repressed SREBP1c expression; also recorded: robustly suppressed SREBP1c”. Moreover, the mrna remaining at 30 µM with SREBP1c (Homo sapiens, 30 μM) turned out to be 10%. Besides, in the test on HepG2 cells, the “lipolytic, antisteatotic activity” value was “displayed lipolytic, antisteatotic activity; also recorded: stimulated lipolysis”.
